The numbers were not newly measured in patent publication US12193471B2, “Aerosolizable formulation” (NICOVENTURES TRADING LIMITED, priority 2018, dated 2025), which cites them from elsewhere.

The conditions of this data set: compared to base cyclodextrins such as β-cyclodextrin.

As to 2-hydroxy-propyl-β-cyclodextrin, the solubility in water entry is “increased solubility in water”.
